The test system of this test is E. coli (BL21;DE3). The test can be described thus: E. coli viability assay (LIVE/DEAD fluorescence imaging). Type of test: cell-based. To be noted: peptide 125 μM; LIVE/DEAD staining, M9 medium, confocal imaging, cell counts with ImageJ; mean ± SE, n = 3. The protocol:
E. coli (BL21;DE3) were dyed using the L7007 LIVE/DEAD Bacterial Viability kit (Molecular Probes, Eugene OR, USA); microbes were grown in M9 medium. Images were acquired on a Leica SP8 confocal microscope, running LASX acquisition software. The magnification consisted of a 63 X 1.4 NA objective. Microbes were counted using ImageJ software. Error calculations were based on three repetitions, with each experiment scanned at nine different tiles—all together, 27 repetitions.
Live/dead fluorescence cell imaging experiments were used to indicate bacterial viability when incubated with the peptides. This method also helped to determine whether the decrease in the growth rate described above resulted from deceleration in E. coli growth or its substantial death. E coli were grown to the late […] phase (according to the growth rate lines; Figs B to D in S1 File) in the presence of the peptides in poor medium (M9), which mostly resembles physiological conditions.[52–54] Glucose levels in the growth media were sufficient to prevent bacterial viability loss due to lack of nutrition, yet not too high to positively affect its viability. […] However, the effect of the peptides was not as substantial as the commercially available antibiotic kanamycin. […] 5 ± 4.3% and up to 45.3 ± 4.3% reduction at a concentration of 125 μM.
Fig 4 Effect of the test peptides on E. coli viability. […]

The record followed here is publication PMC6936879, “Inhibiting the copper efflux system in microbes as a novel approach for developing antibiotics” (PLoS ONE, 2019).

With AKIQG [pep8], the “reduction of bacterial viability” value is recorded as 41 ±5.15%.
